The results in this text go back to patent US20140065223A1, “PERFLUORINATED COMPOUNDS FOR THE NON-VIRAL TRANSFER OF NUCLEIC ACIDS” (priority 2011, published 2014).

The test system of this test is Cells of line HEK 293. Description: Detection of absorption into the cell: transfection of HEK 293 cells, microscopy / confocal microscopy of rhodamine coloration. The test is classed as cell-based. The protocol: To follow the path of the perfluorinated nucleic acids into the cell, the following construct with rhodamine linking was used: The compound was first dissolved in tetrahydrofuran (THF), and this solution was subsequently titrated in isopropanol. […] Cells of line HEK 293 were used as cell culture Transfection was performed one day after cell enlargement. As a control, a transfection was performed with pure rhodamine particles of equivalent rhodamine concentration to test the perfluorinated nucleic acids. […] One explanation of this is possible that the rhodamine is bound to the PFC particle in the perfluorinated nucleic acids and sinks to the bottom as a small particle, whereas the dye is completely dissolved in the medium with pure rhodamine. […] The endosomes and lysosomes filled with perfluorinated nucleic acids were detected throughout the cell cytoplasm.

Consider rhodamine [pure rhodamine], for which the “coloration of the cells” value is, setting by setting: (20 minutes after transfection) “no defined coloration could be seen”; (24 hours after transfection) “substantially weaker and diffuse in comparison on the cell surface instead of in the cytoplasm and granular”.
